Laboratory results published in patent US12404345B2, “Humanized antibodies against iRHOM2” (SCIRHOM GMBH, priority 2021, dated 2025).

Test system: LPS-induced release of endogenous TNFα from human PBMCs from healthy donors
Assay: ELISA-based TNFα release assay, LPS-induced, PBMCs from healthy donors
Assay type: cell-based
Details: PBMC, Batimastat 10 μM, LPS 0.01 ng/ml, 2 hours
Description: In the following study, ELISA-based TNF& release assays were performed to analyze the inhibitory effects of the antibodies of the invention on LPS-induced release of endogenous TNF& from primary human material obtained from healthy donors using peripheral blood mononuclear cells (PBMCs).
In brief, on day 1, Nunc black MaxiSorp® 96-well plates (Thermo Fisher Scientific, USA) were coated overnight with 100 μl per well of mouse anti-human TNFα capture antibody (provided as part of the DuoSet ELISA kit) at 4 μg/ml TBS at 4° C. On day 2, the capture antibody solution was removed and MaxiSorp® plates were blocked with 300 μl per well of TBS, 1% BSA at room temperature for 3 hours. […] Using an infinite M1000 (Tecan Group, Switzerland) microplate reader, the fluorescence of each well was collected at an excitation wavelength of 435 nm and an emission wavelength of 555 nm.

Question: How did the inhibition at 10 µM turn out when CNC(=O)[C@H](Cc1ccccc1)NC(=O)[C@H](CC(C)C)[C@H](CSc1cccs1)C(=O)NO [Batimastat] was run?
Answer: 98.9%
